Patent US20230265151A1, “GIP/GLP1 CO-AGONIST COMPOUNDS” (priority 2020, published 2023)
Like-named read-outs stand apart in the source and are kept apart here.

How the values were obtained:
hGCGR = molecular target: T1, hGCGR (Homo sapiens, UniProt P47871); experiment: Functional cAMP formation (HTRF) in HEK-293 clonal cells expressing hGCGR, 0.1% bovine casein, without or with 1.0% human serum albumin; format: cell-based; conditions: cAMP, incubated at 37° C., 0.1% bovine casein (no human serum albumin), geometric mean
T1 construct: expressed in transfected cells
T1 sequence (P47871 26-477): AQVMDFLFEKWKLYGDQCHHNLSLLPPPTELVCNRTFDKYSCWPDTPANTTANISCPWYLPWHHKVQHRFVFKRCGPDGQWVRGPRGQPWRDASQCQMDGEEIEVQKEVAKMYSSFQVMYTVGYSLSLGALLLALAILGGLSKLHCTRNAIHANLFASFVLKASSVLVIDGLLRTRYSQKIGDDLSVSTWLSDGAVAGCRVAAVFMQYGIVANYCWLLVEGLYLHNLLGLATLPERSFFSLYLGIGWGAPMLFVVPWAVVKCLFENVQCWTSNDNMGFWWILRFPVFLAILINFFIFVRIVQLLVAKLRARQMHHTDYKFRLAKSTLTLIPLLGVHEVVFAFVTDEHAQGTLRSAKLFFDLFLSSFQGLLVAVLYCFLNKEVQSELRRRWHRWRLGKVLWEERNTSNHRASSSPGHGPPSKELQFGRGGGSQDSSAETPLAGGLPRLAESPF
In short: (§1)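 Cells were stimulated with peptide for 30 min at 37° C, then intracellular cAMP was measured by competitive HTRF (665/620 nm ratio) and converted to nM using a cAMP standard curve. Relative EC50 and Emax came from four-parameter logistic fits of percent maximal response against peptide concentration.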

hGIPR = molecular target: T2, hGIPR (Homo sapiens, UniProt P48546); experiment: Functional cAMP formation (HTRF) in HEK-293 clonal cells expressing hGIPR, 0.1% bovine casein, without or with 1.0% human serum albumin; format: cell-based; conditions: for Emax: 37° C., 0.1% bovine casein, arithmetic mean; for EC50: cAMP, incubated at 37° C., 0.1% bovine casein (no human serum albumin), geometric mean
T2 construct: expressed in transfected cells
T2 sequence (P48546 22-466): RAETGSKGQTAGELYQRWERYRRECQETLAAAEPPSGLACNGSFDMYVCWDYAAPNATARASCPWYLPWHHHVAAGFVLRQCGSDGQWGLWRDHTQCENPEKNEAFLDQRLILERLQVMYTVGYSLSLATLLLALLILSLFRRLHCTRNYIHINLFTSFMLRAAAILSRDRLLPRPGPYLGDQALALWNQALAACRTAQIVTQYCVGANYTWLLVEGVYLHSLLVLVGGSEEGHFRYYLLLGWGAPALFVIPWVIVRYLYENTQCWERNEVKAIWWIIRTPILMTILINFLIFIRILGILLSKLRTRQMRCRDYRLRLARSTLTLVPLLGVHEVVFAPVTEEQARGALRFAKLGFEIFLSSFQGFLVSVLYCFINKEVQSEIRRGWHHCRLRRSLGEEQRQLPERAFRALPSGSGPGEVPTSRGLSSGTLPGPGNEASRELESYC
In short: as §1

[1] = read-out: hGCGR EC50, nM (SEM, n)
[2] = HEK293, percent of maximal response to GIP(1-42)NH2, read-out: hGIPR Emax, % ± SEM
[3] = read-out: hGIPR EC50, nM (SEM, n)

| Structure (SMILES) | EC50 (hGCGR; hGCGR EC50, nM (SEM, n)) [nM] | Emax (hGIPR; HEK293, read-out: hGIPR Emax, % ± SEM, percent of maximal response to GIP(1-42)NH2) [%] | EC50 (hGIPR; hGIPR EC50, nM (SEM, n)) [nM] | EC50 (hGCGR; [1]) [nM] | Emax (hGIPR; [2]) [%] | EC50 (hGIPR; [3]) [nM] |
| --- | --- | --- | --- | --- | --- | --- |
| CC[C@H](C)[C@H](NC(=O)[C@H](CC(C)C)NC(=O)[C@](C)(Cc1ccc(O)cc1)NC(=O)[C@H](CCCCNC(=O)[C@@H](N)CCCCNC(=O)[C@@H](N)CCCCNC(=O)CC[C@H](NC(=O)CCCCCCCCCCCCC(=O)O)C(=O)O)NC(=O)[C@@H](NC(=O)[C@H](Cc1ccccc1)NC(=O)[C@H](CCC(=O)O)NC(=O)C(C)(C)NC(=O)[C@H](CCC(N)=O)NC(=O)[C@H](C)NC(=O)[C@H](CCCCNC(=O)[C@@H](N)CCCCNC(=O)[C@@H](N)CCCCNC(=O)CC[C@H](NC(=O)CCCCCCCCCCCCC(=O)O)C(=O)O)NC(=O)[C@H](CCCN)NC(=O)[C@H](CC(=O)O)NC(=O)[C@H](CC(C)C)NC(=O)[C@](C)(CC(C)C)NC(=O)[C@@H](NC(=O)[C@H](CO)NC(=O)[C@H](Cc1ccncc1)NC(=O)[C@H](CC(=O)O)NC(=O)[C@H](CO)NC(=O)[C@@H](NC(=O)[C@](C)(Cc1ccccc1F)NC(=O)[C@@H](NC(=O)CNC(=O)[C@H](CCC(=O)O)NC(=O)C(C)(C)NC(=O)[C@@H](N)Cc1ccc(O)cc1)[C@@H](C)O)[C@@H](C)O)[C@@H](C)CC)[C@@H](C)CC)C(=O)N[C@@H](CCC(=O)O)C(=O)NCC(=O)NCC(=O)N1CCC[C@H]1C(=O)N[C@@H](CO)C(=O)N[C@@H](CO)C(=O)NCC(=O)N[C@@H](C)C(=O)N1CCC[C@H]1C(=O)N1CCC[C@H]1C(=O)N1CCC[C@H]1C(=O)N[C@@H](CO)C(N)=O [Example 162] | > 9950 | 89.7 | 0.022 |  |  |  |
| CC[C@H](C)[C@H](NC(=O)[C@H](CC(C)C)NC(=O)[C@](C)(Cc1ccc(O)cc1)NC(=O)[C@@H](CCC(=O)O)NC(=O)[C@@H](NC(=O)[C@H](Cc1ccccc1)NC(=O)[C@H](CCC(=O)O)NC(=O)[C@](C)(Cc1ccccc1)NC(=O)[C@H](CCC(N)=O)NC(=O)[C@H](C)NC(=O)[C@H](CCCCNC(=O)COCCOCCNC(=O)COCCOCCNC(=O)CC[C@H](NC(=O)CCCCCCCCCCCCC(=O)O)C(=O)O)NC(=O)[C@H](CCCN)NC(=O)[C@H](CC(=O)O)NC(=O)[C@H](CC(C)C)NC(=O)[C@](C)(CC(C)C)NC(=O)[C@@H](NC(=O)[C@H](CO)NC(=O)[C@H](Cc1ccncc1)NC(=O)[C@H](CC(=O)O)NC(=O)[C@H](CO)NC(=O)[C@@H](NC(=O)[C@](C)(Cc1ccccc1F)NC(=O)[C@@H](NC(=O)CNC(=O)[C@H](CCC(=O)O)NC(=O)C(C)(C)NC(=O)[C@@H](N)Cc1ccc(O)cc1)[C@@H](C)O)[C@@H](C)O)[C@@H](C)CC)[C@@H](C)CC)C(=O)N[C@@H](CCC(=O)O)C(=O)NCC(=O)NCC(=O)N[C@@H](CCCCNC(=O)COCCOCCNC(=O)COCCOCCNC(=O)CC[C@H](NC(=O)CCCCCCCCCCCCC(=O)O)C(=O)O)C(=O)N[C@@H](CO)C(=O)N[C@@H](CO)C(=O)NCC(=O)N[C@@H](C)C(=O)N1CCC[C@H]1C(=O)N1CCC[C@H]1C(=O)N1CCC[C@H]1C(=O)N[C@@H](CO)C(N)=O [Example 169] |  |  |  | > 9950 | 96.1 |  |
| CC[C@H](C)[C@H](NC(=O)[C@H](CC(C)C)NC(=O)[C@](C)(Cc1ccc(O)cc1)NC(=O)[C@@H](CCC(=O)O)NC(=O)[C@@H](NC(=O)[C@H](Cc1ccccc1)NC(=O)[C@H](CCC(=O)O)NC(=O)C1(NC(=O)[C@H](CCC(N)=O)NC(=O)[C@H](C)NC(=O)[C@H](CCCCNC(=O)COCCOCCNC(=O)COCCOCCNC(=O)CC[C@H](NC(=O)CCCCCCCCCCCCC(=O)O)C(=O)O)NC(=O)[C@H](CCCN)NC(=O)[C@H](CC(=O)O)NC(=O)[C@H](CC(C)C)NC(=O)[C@](C)(CC(C)C)NC(=O)[C@@H](NC(=O)[C@H](CO)NC(=O)[C@H](Cc2ccncc2)NC(=O)[C@H](CC(=O)O)NC(=O)[C@H](CO)NC(=O)[C@@H](NC(=O)[C@](C)(Cc2ccccc2F)NC(=O)[C@@H](NC(=O)CNC(=O)[C@H](CCC(=O)O)NC(=O)C(C)(C)NC(=O)[C@@H](N)Cc2ccc(O)cc2)[C@@H](C)O)[C@@H](C)O)[C@@H](C)CC)CCCCC1)[C@@H](C)CC)C(=O)N[C@@H](CCC(=O)O)C(=O)NCC(=O)NCC(=O)N[C@@H](CCCCNC(=O)COCCOCCNC(=O)COCCOCCNC(=O)CC[C@H](NC(=O)CCCCCCCCCCCCC(=O)O)C(=O)O)C(=O)N[C@@H](CO)C(=O)N[C@@H](CO)C(=O)NCC(=O)N[C@@H](C)C(=O)N1CCC[C@H]1C(=O)N1CCC[C@H]1C(=O)N1CCC[C@H]1C(=O)N[C@@H](CO)C(N)=O [Example 171] |  |  |  | > 9950 | 95.3 | 0.0389 |
| CC[C@H](C)[C@H](NC(=O)[C@H](CC(C)C)NC(=O)[C@](C)(Cc1ccc(O)cc1)NC(=O)[C@@H](CCC(=O)O)NC(=O)[C@@H](NC(=O)[C@H](Cc1ccccc1)NC(=O)[C@H](CCC(=O)O)NC(=O)C(C)(C)NC(=O)[C@H](CCC(N)=O)NC(=O)[C@H](C)NC(=O)[C@H](CCCCNC(=O)COCCOCCNC(=O)COCCOCCNC(=O)CC[C@H](NC(=O)CCCc1ccc(C(C)(C)C)cc1)C(=O)O)NC(=O)[C@H](CCCN)NC(=O)[C@H](CC(=O)O)NC(=O)[C@H](CC(C)C)NC(=O)[C@](C)(CC(C)C)NC(=O)[C@@H](NC(=O)C(C)(C)NC(=O)[C@@H](NC(=O)[C@H](CC(=O)O)NC(=O)[C@H](CO)NC(=O)[C@@H](NC(=O)[C@](C)(Cc1ccccc1F)NC(=O)[C@@H](NC(=O)CNC(=O)[C@H](CCC(=O)O)NC(=O)C(C)(C)NC(=O)[C@@H](N)Cc1ccc(O)cc1)[C@@H](C)O)[C@@H](C)O)C(C)C)[C@@H](C)CC)[C@@H](C)CC)C(=O)N[C@@H](CCC(=O)O)C(=O)NCC(=O)NCC(=O)N[C@@H](CCCCNC(=O)COCCOCCNC(=O)COCCOCCNC(=O)CC[C@H](NC(=O)CCCc1ccc(C(C)(C)C)cc1)C(=O)O)C(=O)N[C@@H](CO)C(=O)N[C@@H](CO)C(=O)NCC(=O)N[C@@H](C)C(=O)N1CCC[C@H]1C(=O)N1CCC[C@H]1C(=O)N1CCC[C@H]1C(=O)N[C@@H](CO)C(N)=O [Example 177] |  |  |  | > 9950 | 113 |  |
| CC[C@H](C)[C@H](NC(=O)[C@H](CC(C)C)NC(=O)[C@](C)(Cc1ccc(O)cc1)NC(=O)[C@@H](CCC(=O)O)NC(=O)[C@@H](NC(=O)[C@H](Cc1ccccc1)NC(=O)[C@H](CCC(=O)O)NC(=O)C(C)(C)NC(=O)[C@H](CCC(N)=O)NC(=O)[C@H](C)NC(=O)[C@H](CCCCNC(=O)COCCOCCNC(=O)COCCOCCNC(=O)CC[C@H](NC(=O)CCCc1ccc(C(C)(C)C)cc1)C(=O)O)NC(=O)[C@H](CCCN)NC(=O)[C@H](CC(=O)O)NC(=O)[C@H](CC(C)C)NC(=O)[C@](C)(CC(C)C)NC(=O)[C@@H](NC(=O)C(C)(C)NC(=O)[C@@H](NC(=O)[C@H](CC(=O)O)NC(=O)[C@H](CO)NC(=O)[C@@H](NC(=O)[C@](C)(Cc1ccccc1)NC(=O)[C@@H](NC(=O)CNC(=O)[C@H](CCC(=O)O)NC(=O)C(C)(C)NC(=O)[C@@H](N)Cc1ccc(O)cc1)[C@@H](C)O)[C@@H](C)O)C(C)C)[C@@H](C)CC)[C@@H](C)CC)C(=O)N[C@@H](CCC(=O)O)C(=O)NCC(=O)NCC(=O)N[C@@H](CCCCNC(=O)COCCOCCNC(=O)COCCOCCNC(=O)CC[C@H](NC(=O)CCCc1ccc(C(C)(C)C)cc1)C(=O)O)C(=O)N[C@@H](CO)C(=O)N[C@@H](CO)C(=O)NCC(=O)N[C@@H](C)C(=O)N1CCC[C@H]1C(=O)N1CCC[C@H]1C(=O)N1CCC[C@H]1C(=O)N[C@@H](CO)C(N)=O [Example 178] |  |  |  | > 9950 | 105 | 0.11 |
| CC[C@H](C)[C@H](NC(=O)[C@H](CC(C)C)NC(=O)[C@](C)(Cc1ccc(O)cc1)NC(=O)[C@@H](CCC(=O)O)NC(=O)[C@@H](NC(=O)[C@H](Cc1ccccc1)NC(=O)[C@H](CCC(=O)O)NC(=O)C(C)(C)NC(=O)[C@H](CCC(N)=O)NC(=O)[C@H](C)NC(=O)[C@H](CCCCNC(=O)COCCOCCNC(=O)COCCOCCNC(=O)CC[C@H](NC(=O)CCCCCCCCCCCCC(=O)O)C(=O)O)NC(=O)[C@H](CCCN)NC(=O)[C@H](CC(=O)O)NC(=O)[C@H](CC(C)C)NC(=O)[C@](C)(CC(C)C)NC(=O)[C@@H](NC(=O)C(C)(C)NC(=O)[C@@H](NC(=O)[C@H](CC(=O)O)NC(=O)[C@H](CO)NC(=O)[C@@H](NC(=O)[C@](C)(Cc1ccccc1)NC(=O)[C@@H](NC(=O)CNC(=O)[C@H](CCC(=O)O)NC(=O)C(C)(C)NC(=O)[C@@H](N)Cc1ccc(O)cc1)[C@@H](C)O)[C@@H](C)O)C(C)C)[C@@H](C)CC)[C@@H](C)CC)C(=O)N[C@@H](CCC(=O)O)C(=O)NCC(=O)NCC(=O)N[C@@H](CCCCNC(=O)COCCOCCNC(=O)COCCOCCNC(=O)CC[C@H](NC(=O)CCCCCCCCCCCCC(=O)O)C(=O)O)C(=O)N[C@@H](CO)C(=O)N[C@@H](CO)C(=O)NCC(=O)N[C@@H](C)C(=O)N1CCC[C@H]1C(=O)N1CCC[C@H]1C(=O)N1CCC[C@H]1C(=O)N[C@@H](CO)C(N)=O [Example 180] |  |  |  | > 9950 | 86.8 |  |
